According to PMC5727211, “Development of Erasin: a chromone-based STAT3 inhibitor which induces apoptosis in Erlotinib-resistant lung cancer cells” (Scientific Reports, 2017):

Key:
STAT1 SH2 domain = target: T1, STAT1 SH2 domain (Homo sapiens, UniProt P42224); test: FP-based competitive binding assay, STAT1 SH2 domain; settings: mean ± s.d., three experiments; for IC50: 1 h with protein, then 1 h with peptide, read-out: STAT1 app. IC50; for inhibition at 80 µM / STAT1 inhibition: at 80 µM
T1 sequence (P42224 1-750): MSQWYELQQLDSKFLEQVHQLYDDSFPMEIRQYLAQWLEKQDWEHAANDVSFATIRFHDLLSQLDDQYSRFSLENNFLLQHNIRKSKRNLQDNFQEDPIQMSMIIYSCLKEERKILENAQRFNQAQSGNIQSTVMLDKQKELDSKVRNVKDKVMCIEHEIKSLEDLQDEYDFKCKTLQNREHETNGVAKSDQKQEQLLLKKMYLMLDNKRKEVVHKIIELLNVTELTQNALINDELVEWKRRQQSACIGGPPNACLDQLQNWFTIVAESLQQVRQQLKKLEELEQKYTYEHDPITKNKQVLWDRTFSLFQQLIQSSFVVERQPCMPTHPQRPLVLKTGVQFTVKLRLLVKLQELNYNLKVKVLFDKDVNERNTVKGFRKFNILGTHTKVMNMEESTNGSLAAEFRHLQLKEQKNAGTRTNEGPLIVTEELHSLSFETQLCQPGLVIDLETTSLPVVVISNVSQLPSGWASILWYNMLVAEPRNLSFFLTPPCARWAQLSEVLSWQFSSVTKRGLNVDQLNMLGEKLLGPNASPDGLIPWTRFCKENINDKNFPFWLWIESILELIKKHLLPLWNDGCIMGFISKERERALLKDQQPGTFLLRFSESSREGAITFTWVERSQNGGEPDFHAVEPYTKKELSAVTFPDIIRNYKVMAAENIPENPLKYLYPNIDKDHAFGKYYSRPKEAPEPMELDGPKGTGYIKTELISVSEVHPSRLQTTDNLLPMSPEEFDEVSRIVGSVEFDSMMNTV
Method: (§1) The STAT family display a high degree of homology. […] Vilsmeyer-Haack formylation of 2-hydroxy acetophenones led to 3-formyl chromones, which were subsequently converted to the acyl hydrazones by reaction with hydrazides (Fig. 1). The target molecules were tested for their abilities to inhibit binding of fluorophore-labeled peptides to the SH2 domains of STAT1[24], STAT3[25], and STAT5b[26] in assays based on fluorescence polarization (FP). The more distantly related SH2 domain of the tyrosine kinase Lck served as additional specificity control[27],[28].
(§2) Assays were performed essentially as described. In brief, protein was incubated with the test compounds for 1 h at room temperature at the following protein concentrations: STAT1: 400 nM, STAT3: 210 nM, STAT5b: 300 nM, Lck SH2: 35 nM. Subsequently, the corresponding fluorophore-labeled peptide was added: STAT1: (5-carboxyfluorescein)-GpYDKPHVL-OH, derived from the interferon-γ receptor[24]; STAT3: (5-carboxyfluorescein)-GpYLPQTV-NH2, derived from the gp130 subunit of the IL-6 receptor[25]; STAT5b: (5-carboxyfluorescein)-GpYLVLDKW-OH, derived from the erythropoietin receptor[26]; Lck SH2: (5-carboxyfluorescein)-GpYEEIP-OH, derived from the middle-T antigen. After a further hour of incubation, fluorescence polarization was measured in a plate reader (Tecan Infinite F500). Apparent IC50 data shown in Tables 1, 2, and S1 and the inhibition curves shown in Fig. 2a correspond to this time point. The majority of the pipetting work was carried out using a Biomek FXp workstation (Beckman-Coulter). Buffer composition: 10 mM Tris pH 8.0, 50 mM NaCl, 1 mM EDTA, 1 mM dithiothreitol (DTT), 0.1% Nonidet P-40, and 2% DMSO.

STAT3 SH2 domain = STAT3 SH2 domain (Homo sapiens, UniProt P40763); test: FP-based competitive binding assay, STAT3 SH2 domain; settings: mean ± s.d., three experiments; for IC50: 1 h with protein, then 1 h with peptide, read-out: STAT3 app. IC50; for inhibition at 80 µM / STAT3 inhibition: at 80 µM
Method: as §1
as §2, with “Buffer composition: 10 mM Tris pH 8.0, 50 mM NaCl, 1 mM EDTA, 1 mM dithiothreitol (DTT), 0.1% Nonidet P-40, and 2% DMSO.” left out

STAT5b SH2 domain = target: T2, STAT5b SH2 domain (Homo sapiens, UniProt P51692); test: FP-based competitive binding assay, STAT5b SH2 domain; settings: mean ± s.d., three experiments; for IC50: 1 h with protein, then 1 h with peptide, read-out: STAT5b app. IC50; for inhibition at 80 µM / STAT5b inhibition: at 80 µM
T2 sequence (P51692 1-787): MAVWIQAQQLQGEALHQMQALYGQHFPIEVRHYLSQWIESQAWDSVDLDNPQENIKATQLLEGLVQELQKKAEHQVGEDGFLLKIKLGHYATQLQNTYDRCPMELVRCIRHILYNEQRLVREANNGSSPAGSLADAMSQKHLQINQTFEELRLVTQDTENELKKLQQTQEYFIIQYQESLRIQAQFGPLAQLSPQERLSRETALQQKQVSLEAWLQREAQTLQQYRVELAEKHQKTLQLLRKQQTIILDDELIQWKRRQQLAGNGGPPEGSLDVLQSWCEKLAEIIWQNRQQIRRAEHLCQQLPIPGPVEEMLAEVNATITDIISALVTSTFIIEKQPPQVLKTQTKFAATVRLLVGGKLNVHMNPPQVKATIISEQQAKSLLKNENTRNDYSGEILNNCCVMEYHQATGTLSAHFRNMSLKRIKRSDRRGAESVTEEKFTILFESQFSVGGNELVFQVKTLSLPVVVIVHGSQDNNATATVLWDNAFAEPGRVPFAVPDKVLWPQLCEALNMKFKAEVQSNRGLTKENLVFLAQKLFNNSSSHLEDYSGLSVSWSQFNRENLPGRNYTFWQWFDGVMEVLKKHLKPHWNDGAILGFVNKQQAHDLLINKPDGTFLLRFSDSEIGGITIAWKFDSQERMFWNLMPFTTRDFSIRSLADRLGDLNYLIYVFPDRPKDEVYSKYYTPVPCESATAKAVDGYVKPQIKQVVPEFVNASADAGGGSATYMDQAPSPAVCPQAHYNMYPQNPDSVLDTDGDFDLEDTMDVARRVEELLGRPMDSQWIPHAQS
Method: as §1, §2

Lck SH2 = target: T3, Lck SH2 (Homo sapiens, UniProt P06239); test: FP-based competitive binding assay, Lck SH2 domain; settings: for Lck inhibition: at 80 µM
T3 construct: STAT1: 400 nM, STAT3: 210 nM, STAT5b: 300 nM, Lck SH2: 35 nM
Method: as §1, §2
Supplementary Figures and Table
No Structure app. IC50 [µM] or
Supplementary Table S1: Activities of test compounds in fluorescence polarization assays against the
SH2 domains of Lck. See the Supporting Methods for details. […]

parental HCC-827 cells = test: Apoptosis assay (Annexin V/7-AAD flow cytometry), parental HCC-827 cells; format: cell-based, human; settings: 24 h
Method: (§3) Afterwards, the cell culture supernatant from each well was collected. […] The supernatants were then returned to each well to neutralize the Accutase solution and the cells were centrifuged at 3000 rpm, at 4 °C for 5 min. The cell pellets were washed twice with cold PBS and centrifuged again. […] Cells were resuspended in 1 x binding buffer and incubated with PE Annexin V and 7-AAD at 4 °C for 30 min. Apoptosis was measured using an LSR II flow cytometer (BD Bioscience). Experiments were carried out in at least triplicate.

[1] = tested on: Erlotinib-resistant HCC-827 cells; test: Apoptosis assay (Annexin V/7-AAD flow cytometry), Erlotinib-resistant HCC-827 cells; format: cell-based, human; settings: 24 h
Method: as §3, with “triplicate. […]” for “triplicate.”

T3 sequence (P06239 127-224 limits assumed): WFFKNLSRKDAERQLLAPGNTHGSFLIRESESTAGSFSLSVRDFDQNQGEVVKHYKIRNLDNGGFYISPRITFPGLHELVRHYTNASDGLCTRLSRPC
Chain of STAT3 SH2 domain (P40763 whole entry, the tested form may be a part): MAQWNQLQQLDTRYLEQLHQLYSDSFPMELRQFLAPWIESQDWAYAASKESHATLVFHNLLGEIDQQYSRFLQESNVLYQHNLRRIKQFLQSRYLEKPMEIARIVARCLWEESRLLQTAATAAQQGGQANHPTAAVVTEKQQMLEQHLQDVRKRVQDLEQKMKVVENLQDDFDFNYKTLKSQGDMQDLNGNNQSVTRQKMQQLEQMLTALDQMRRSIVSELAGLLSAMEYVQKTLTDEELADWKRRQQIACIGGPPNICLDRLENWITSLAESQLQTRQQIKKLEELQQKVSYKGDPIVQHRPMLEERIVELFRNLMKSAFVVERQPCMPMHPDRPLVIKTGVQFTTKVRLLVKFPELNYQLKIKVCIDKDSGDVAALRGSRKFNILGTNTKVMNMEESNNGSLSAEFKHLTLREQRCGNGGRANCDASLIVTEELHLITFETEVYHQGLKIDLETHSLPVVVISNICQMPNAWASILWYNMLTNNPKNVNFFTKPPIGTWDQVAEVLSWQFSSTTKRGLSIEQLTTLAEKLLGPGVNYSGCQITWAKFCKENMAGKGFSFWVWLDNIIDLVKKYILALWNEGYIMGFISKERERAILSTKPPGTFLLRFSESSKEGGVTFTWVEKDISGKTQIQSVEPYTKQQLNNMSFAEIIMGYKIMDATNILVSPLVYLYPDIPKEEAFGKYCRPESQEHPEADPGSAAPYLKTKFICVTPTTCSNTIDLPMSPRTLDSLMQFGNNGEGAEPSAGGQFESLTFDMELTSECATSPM

O=C(N/N=C/c1coc2ccc(Cl)cc2c1=O)c1cccnc1 [Compound 3] gave an IC50 (STAT1 SH2 domain) of 32 ± 11 µM, an IC50 (STAT3 SH2 domain) of 40 ± 3 µM and an inhibition at 80 µM (STAT5b SH2 domain) of 31 ± 4%. It also gave an inhibition at 80 µM (Lck SH2) of 6 ± 6%.

Work on O=C(N/N=C/c1coc2ccc(Br)cc2c1=O)c1cccnc1 [Compound 4] yielded an inhibition at 80 µM (STAT1 SH2 domain) of 36 ± 6%, an IC50 (STAT3 SH2 domain) of 25 ± 1 µM and an inhibition at 80 µM (STAT5b SH2 domain) of 33 ± 7%. The inhibition at 80 µM (Lck SH2) was 13 ± 2%.

In the case of Cc1ccc2occ(/C=N/NC(=O)c3cccnc3)c(=O)c2c1 [Compound 5], the inhibition at 80 µM (STAT1 SH2 domain) is reported as 12 ± 3%, the inhibition at 80 µM (STAT3 SH2 domain) is reported as 40 ± 2% and the IC50 (STAT5b SH2 domain) is reported as 32 ± 24 µM. The Lck inhibition (Lck SH2) was “no inhibition”.

For CC(C)c1ccc2occ(/C=N/NC(=O)c3cccnc3)c(=O)c2c1 [Compound 7], the IC50 (STAT1 SH2 domain) was 39 ± 2 µM, the IC50 (STAT3 SH2 domain) was 22 ± 1 µM and the IC50 (STAT5b SH2 domain) was 52 ± 12 µM. The Lck inhibition (Lck SH2) was “no inhibition”.

Molecule CC(C)(C)c1ccc2occ(C=O)c(=O)c2c1 [Compound 8a] has an IC50 (STAT1 SH2 domain) of 15 ± 1.4 µM, an IC50 (STAT3 SH2 domain) of 8.9 ± 0.8 µM and an IC50 (STAT5b SH2 domain) of 27.7 ± 1.5 µM.

With CCC(C)(C)c1ccc2occ(C=O)c(=O)c2c1 [Compound 9a] the IC50 (STAT1 SH2 domain) was 10.7 ± 1.1 µM, the IC50 (STAT3 SH2 domain) was 5.3 ± 0.4 µM and the IC50 (STAT5b SH2 domain) was 34.8 ± 4.2 µM.

In the case of O=C(N/N=C/c1coc2ccc(-c3ccccc3)cc2c1=O)c1cccnc1 [Compound 10], the STAT1 inhibition (STAT1 SH2 domain) is reported as 36 ± 2% inhibition at 80 µM, the STAT3 inhibition (STAT3 SH2 domain) is reported as 35 ± 5% inhibition at 80 µM and the STAT5b inhibition (STAT5b SH2 domain) is reported as “no inhibition at 80 µM”. For the same molecule, the Lck inhibition (Lck SH2) was “no inhibition”.

COc1ccc2occ(/C=N/NC(=O)c3cccnc3)c(=O)c2c1 [Compound 11] was tested, and the inhibition at 80 µM (STAT1 SH2 domain) was 19 ± 2%, the IC50 (STAT3 SH2 domain) was 65 ± 1 µM and the inhibition at 80 µM (STAT5b SH2 domain) was 30 ± 7%. For the same molecule, the inhibition at 80 µM (Lck SH2) was 23 ± 2%.

For O=C(N/N=C/c1coc2ccc([N+](=O)[O-])cc2c1=O)c1cccnc1 [Compound 12], the inhibition at 80 µM (STAT1 SH2 domain) was 3 ± 3%, the inhibition at 80 µM (STAT3 SH2 domain) was 14 ± 2% and the STAT5b inhibition (STAT5b SH2 domain) was “no inhibition at 80 µM”. The inhibition at 80 µM (Lck SH2) was 22 ± 6%.

CC(C)(C)c1ccc2occ(/C=N/NC(=O)c3ccccc3)c(=O)c2c1 [Compound 13] gave an IC50 (STAT1 SH2 domain) of 35 ± 4 µM and an IC50 (STAT3 SH2 domain) of 14 ± 2 µM.

CC(C)(C)c1ccc2occ(/C=N/NC(=O)c3ccc(O)cc3)c(=O)c2c1 [Compound 14] gave an IC50 (STAT1 SH2 domain) of 77 ± 16 µM and an IC50 (STAT3 SH2 domain) of 19 ± 1 µM.

COc1ccc(C(=O)N/N=C/c2coc3ccc(C(C)(C)C)cc3c2=O)cc1 [Compound 15] gave an inhibition at 80 µM (STAT1 SH2 domain) of 34 ± 4% and an IC50 (STAT3 SH2 domain) of 26 ± 5 µM.

For COc1cccc(C(=O)N/N=C/c2coc3ccc(C(C)(C)C)cc3c2=O)c1 [Compound 16], the inhibition at 80 µM (STAT1 SH2 domain) was 15 ± 2% and the inhibition at 80 µM (STAT3 SH2 domain) was 42 ± 2%.

Molecule CC(C)(C)c1ccc2occ(/C=N/NC(=O)c3ccco3)c(=O)c2c1 [Compound 17] has an IC50 (STAT1 SH2 domain) of 49 ± 2 µM and an IC50 (STAT3 SH2 domain) of 14 ± 1 µM.

In the case of CC(C)(C)c1ccc2occ(/C=N/NC(=O)c3cccs3)c(=O)c2c1 [Compound 18], the inhibition at 80 µM (STAT1 SH2 domain) is reported as 32 ± 0.1% and the IC50 (STAT3 SH2 domain) is reported as 39 ± 4 µM.

CC(C)(C)c1ccc2occ(/C=N/NC(=O)c3ccc[nH]3)c(=O)c2c1 [Compound 19] showed an STAT1 inhibition (STAT1 SH2 domain) of 9 ± 4% inhibition at 80 µM and an IC50 (STAT3 SH2 domain) of 50 ± 7 µM.

In the case of CC(C)(C)c1ccc2occ(/C=N/NC(=O)c3ccc(F)cc3)c(=O)c2c1 [Compound 20], the inhibition at 80 µM (STAT1 SH2 domain) is reported as 10 ± 5% and the inhibition at 80 µM (STAT3 SH2 domain) is reported as 31 ± 8%.

Work on CC(C)(C)c1ccc2occ(/C=N/NC(=O)c3ccc(Cl)cc3)c(=O)c2c1 [Compound 21] yielded an STAT1 inhibition (STAT1 SH2 domain) of 12 ± 4% inhibition at 80 µM and an STAT3 inhibition (STAT3 SH2 domain) of 20 ± 2% at 80 µM.

With CC(C)(C)c1ccc2occ(/C=N/NCc3ccccc3)c(=O)c2c1 [Compound 22] the inhibition at 80 µM (STAT3 SH2 domain) was 9 ± 3%.

CC(C)(C)c1ccc2occ(/C=N/NS(=O)(=O)c3ccccc3)c(=O)c2c1 [Compound 23] was tested, and the inhibition at 80 µM (STAT3 SH2 domain) was 4 ± 3%.

With C#Cc1cccc(Nc2ncnc3cc(OCCOC)c(OCCOC)cc23)c1 [Erlotinib] the apoptosis (parental HCC-827 cells; 1 nM) was “significant increase in apoptosis”, the induction of apoptosis (parental HCC-827 cells; 1 µM) was “more than tenfold induction of apoptosis” and the apoptosis ([1]; 10 nM) was “did not show increased apoptosis”. For the same molecule, the “increase of the apoptotic rate” value ([1]; 1 µM) was “only a twofold increase”.
